Source: article PMC12028564, “A New Class of BRCA1 Mimetics for ERα-Positive Breast Cancer Therapy: Design, Synthesis, In Silico Screening, In Vitro Assay, and Gene Expression Analysis” (Life, 2025)
Like-named read-outs stand apart in the source and are kept apart here.

Key:
Vero cells = test: MTT cytotoxicity assay on Vero cells; format: cell-based
Text: (§1) Vero cells are known for their ability to assess the safety of new compounds and their sensitivity to a wide range of toxic substances. MDA-MB-231 cells are derived from human […] breast cancer tissue. MDA-MB-231 cells provide a reliable method for assessing the toxicity and effectiveness of potential anticancer compounds, especially those that target estrogen receptors or associated pathways. We assessed the anticancer activity of the compounds on Vero cells and MDA-MB-231 using the MTT (3-(4,5-dimethyl thiazol-2yl)-2,5-diphenyl tetrazolium bromide) assay. The MTT assay is one of the most commonly used for cancer drug screening. This is a basic and easy assay for cytotoxicity, and it is one of the most popular cytotoxicity assays in the research laboratory. We plated cells (1 × 10^5/well) in 96-well plates using 0.2 mL of medium per well. We carefully removed the media from the wells for the MTT assay after incubation. After two to three MEM (w/o) FCS washes, 200 µL of MTT (5 mg/mL) was added to each well. We incubated the plates for 6–7 h in a 5% CO^2 incubator to test for cytotoxicity. Following the incubation, we added […] of vehicle (DMSO) to each well, mixed it thoroughly with a micropipette, and left it for 45 s. NADPH-dependent dehydrogenase catalyzes the conversion of tetrazolium salt (MTT) into a purple formazan product in cells. This indicates the presence of metabolically active cells. We placed the solution in the spectrophotometer’s cuvette and recorded the optical density at 595 nm, using DMSO as the blank reference. Measurements were conducted, and the concentration required for 50% inhibition of viability (IC50) was visually determined. A standard graph was constructed, with the drug concentration plotted on the X-axis and relative cell viability on the Y-axis. %Cell Viability=Mean Optical Density of Individual Sample/Mean Optical Density of Control×100

MDA-MB-231 cells [1] = test: MTT cytotoxicity assay on MDA-MB-231 cells; format: cell-based, human
Text: as §1

Cyclin D1 = test: RT-qPCR gene expression of Cyclin D1 (ΔΔCt method, GAPDH reference) in MDA-MB-231 cells; format: cell-based, human; settings: for Cyclin D1 ΔΔCt: versus cell control
Text: (§2) To determine whether the synthesized compounds were repressing the ER alpha protein or not, we performed gene expression analyses for Cyclin D1 and BCL2 using the real-time quantitative polymerase chain reaction (RT-qPCR). RT-qPCR is an efficient, simple, and low-cost technique to quantify gene expression levels. The delta-delta Ct (ΔΔCt) method is a widely used technique for analyzing real-time quantitative PCR (qPCR) data. We chose three compounds, 9b, 9l, and 9m, based on their lowest IC50 values and conducted gene expression studies for BCL2 and Cyclin D1. We used the GAPDH as a reference gene. We chose primer pairings with the lowest penalty value designed by the Primer Express 2.0 software to obtain the best results.
A 100-picomolar primer stock was prepared utilizing primers of Cyclin D1, BCL2, and GAPDH (Table 6), which were then diluted to a 10-picomolar working stock for use in real-time PCR. RNA was extracted from four samples utilizing the PureLink RNA Mini Kit and quantified using the Biophotometer Plus (Table 3). A total of 1 µg of RNA was taken from the isolated RNA and used for cDNA synthesis with the Takara Prime Script 1st Strand cDNA Synthesis Kit. Each real-time PCR experiment utilized 25 ng of cDNA, 10 picomolar forward and reverse primers, and a final reaction volume of 20 µL. Cyclin D1, BCL2, and GAPDH average Ct values were extracted from each sample’s replicates. Then, using the formula below (1), we determined the ΔCt from the mean Ct values of Cyclin D1 and BCL2 with reference to the reference gene’s GAPDH mean Ct values. In the real-time qPCR, the temperature was set at 95 °C for 10 min (denaturation), then 40 cycles at 95 °C for 15 s and 60 °C for one minute. Each sample was processed in triplicate in six-well plates for the qPCR analysis using the Qiagen kit. The comparative Ct was used for quantification analysis, and the Ct values (Ct1, Ct2, and Ct3) were averaged.ΔCt = Ct (gene of interest) − Ct (housekeeping gene)(1)
We calculated the ΔΔCt from the ΔCt values of the Cyclin D1 and BCL2. The […] were calculated using the following Formula (2).ΔΔCt = ΔCt (Sample) − ΔCt (Control)(2)
Finally, we calculated the fold gene expression for CyclinD1 and BCL2 with reference to the reference gene GAPDH using the following Formula (3) (Table 5).Fold gene expression = 2^−ΔΔCt(3)

BCL2 = test: RT-qPCR gene expression of BCL2 (ΔΔCt method, GAPDH reference) in MDA-MB-231 cells; format: cell-based, human; settings: versus cell control
Text: as §2, with “We chose primer pairings with the lowest penalty value designed by the Primer Express 2.0 software to obtain the best results.” left out
A 100-picomolar primer stock was prepared utilizing primers of Cyclin D1, BCL2, and GAPDH (Table 6), which were then diluted to a 10-picomolar working stock for use in real-time PCR. RNA was extracted from four samples utilizing the PureLink RNA Mini Kit and quantified using the Biophotometer Plus (Table 3). […] Then, using the formula below (1), we determined the ΔCt from the mean Ct values of Cyclin D1 and BCL2 with reference to the reference gene’s GAPDH mean Ct values. […] The comparative Ct was used for quantification analysis, and the Ct values (Ct1, Ct2, and Ct3) were averaged.ΔCt = Ct (gene of interest) − Ct (housekeeping gene)(1)
We calculated the ΔΔCt from the ΔCt values of the Cyclin D1 and BCL2. […]

MDA-MB-231 cells [2] = test system: MDA-MB-231 cells; set-up: method as in PMID 24278556; settings: reference drug, reported value; cited from earlier work

Compound	IC50 (Vero cells)	IC50 (MDA-MB-231 cells [1])	IC50 (Vero cells; Chlorocebus sabaeus)	Cyclin D1 ΔΔCt (Cyclin D1)	IC50 (MDA-MB-231 cells [1]; Homo sapiens)	also measured
Cc1c/c(=N\NC(=S)/N=C/c2ccc(Cl)cc2Cl)oc2cc(O)ccc12 [Compound 7a]	513 µM	357 µM	–	–	–	–
COc1ccc(/C=N/C(=S)N/N=c2\cc(C)c3ccc(O)cc3o2)cc1 [Compound 7i]	292 µM	237 µM	–	–	–	–
Cc1c/c(=N\NC(=S)/N=C/c2ccc(Br)cc2)oc2cc(O)ccc12 [Compound 7m]	149 µM	90.5 µM	–	–	–	–
Oc1c/c(=N\NC(=S)/N=C/c2ccc(Cl)cc2)oc2ccccc12 [Compound 9b]	–	–	60.9 µM	−0.57	14.5 µM	Relative gene expression CyclinD1 (Cyclin D1; control = 1): 1.485; Cyclin D1 2^(−ΔΔCt) (Cyclin D1; fold gene expression): 1.485; BCL2 ΔΔCt (BCL2): 1.42
Oc1c/c(=N\NC(=S)/N=C/c2cccc3ccccc23)oc2ccccc12 [Compound 9c]	87.4 µM	61.5 µM	–	–	–	–
O=[N+]([O-])c1ccc(/C=N/C(=S)N/N=c2\cc(O)c3ccccc3o2)cc1 [Compound 9l]	–	–	87.7 µM	2.2	35.1 µM	–
Oc1c/c(=N\NC(=S)/N=C/c2ccc(Br)cc2)oc2ccccc12 [Compound 9m]	–	–	68.7 µM	2.03	42.1 µM	BCL2 ΔΔCt (BCL2): 1.41
Oc1cc(/C=N/C(=S)N/N=c2\cc(O)c3ccccc3o2)cc(O)c1O [Compound 9n]	119 µM	47.7 µM	–	–	–	–
O=C(c1ccc(OCCN2CCCCC2)cc1)c1c(-c2ccc(O)cc2)sc2cc(O)ccc12 [Raloxifene]	–	–	–	–	–	IC50 (MDA-MB-231 cells [2]): 13.7 µM
